For 73 compounds, EC50, IC50 and outcome results are on record in PubChem BioAssay AID179 (DTP/NCI, 2004).

Broadly, the EC50 is the concentration giving half of the maximal effect. As usually defined, the IC50 is the concentration that gives 50% inhibition. A high value points to lower potency.

This experiment has as its system CEM cells HIV-1 protection, formazan growth assay. The experiment in a line: NCI AIDS Antiviral Assay. The conditions noted are these: for IC50: measured here: growth of uninfected CEM cells. The method, then:
The ability of compounds to protect human CEM cells from HIV-1 infection is measured as a screen for new compounds capable of inhibiting the HIV virus. Five concentrations of drug were tested on uninfected and infected cells and cell growth was measured using a soluble formazan assay. […] Compounds that provided at least 50% protection were retested. Compounds that provided at least 50% protection on retest were listed as moderately active. Compounds that reproducibly provided 100% protection were listed as confirmed active. […] Note that the inability to provide protection could be due to toxicity.

SMILES strings stand for the structures. Calls of active or inactive are those of the source.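 Rule for the calls: active = compounds giving half or more protection of infected cells from virus-caused growth loss, again on retest; inactive = the rest.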

With `CN1c2ccccc2C2=C(C(=O)CCS2)S1(=O)=O`, the EC50 is more than 35.5 µM and the half-maximal inhibitory concentration (IC50) is more than 35.5 µM. As for `COC(=O)c1ccccc1CC1Cc2ccc3c(c2C1)CCC3` (stereo unspecified), the EC50 was more than 200 µM and the IC50 was found to be 91.2 µM. Consider `COc1ccc(/C=C2\N=C(N3CCCC(CO)C3)NC2=O)cc1` (stereo unspecified), for which the EC50 is more than 200 µM and the IC50 was more than 200 µM. Consider `Cc1cn(C2OC(CO)C(CC(N)=O)C2O)c(=O)[nH]c1=O` (stereo unspecified), for which the EC50 is more than 200 µM and the IC50 was more than 200 µM. Regarding `Nc1cc2c(cc1-n1cccc1)oc1ccccc12`, the EC50 was more than 200 µM and the IC50 worked out at 19.5 µM. Take `COC(=O)Nc1cn2c(n1)sc1ccccc12`: the EC50 is more than 200 µM and the IC50 was 15.8 µM. In the case of `CN(Cc1c2ccccc2cc2ccccc12)S(=O)(=O)c1ccc(-c2c3nc(c(-c4ccc(S(=O)(=O)N(C)Cc5c6ccccc6cc6ccccc56)cc4)c4ccc([nH]4)c(-c4ccc(S(=O)(=O)N(C)Cc5c6ccccc6cc6ccccc56)cc4)c4nc(c(-c5ccc(S(=O)(=O)N(C)Cc6c7ccccc7cc7ccccc67)cc5)c5ccc2[nH]5)C=C4)C=C3)cc1`, the EC50 is more than 100 µM and the IC50 was more than 100 µM. Turning to `COc1ccc(NC(=O)C(=O)Cc2ccc([N+](=O)[O-])c([N+](=O)[O-])c2CC(=O)C(=O)Nc2ccc(OC)cc2OC)c(OC)c1`, the EC50 was more than 407 µM and the IC50 was 186 µM. As for `CC1(CCc2ccccc2)CC1(Br)Br` (stereo unspecified), the EC50 was more than 200 µM and the IC50 was 95.5 µM.

`c1ccc2c(c1)nc1nc3c(cn12)CCCCC3`: the outcome was inactive. On to `NC(CSP(=O)(O)O)=NCC12CC3CC(CC(C3)C1)C2`, for which the result was inactive. In the case of `CCCCC1(C(NC(=O)c2ccccc2Cl)c2ccncc2)C(=O)N(c2ccccc2)N(c2ccccc2)C1=O` (stereo unspecified), the result was inactive. As for `O=C1CC(=O)N(c2ccccc2)N1/C(=C/c1ccccc1)c1ccccc1`, the EC50 was more than 200 µM and the IC50 turned out to be 9.33 µM.

On to `O=[As](O)(O)c1ccccc1F`, for which the EC50 is more than 200 µM and the IC50 amounted to 141 µM. For the compound `O=C(O)/C(Cl)=C(Cl)/C=N/NC(=O)c1cc2ccccc2cc1O`, the EC50 is more than 102 µM and the IC50 came out at 5.75 µM. On to `CC(C)=CCC/C(C)=C\C=N/O`, for which the EC50 is more than 155 µM and the IC50 stood at 8.13 µM. Regarding `O=S1Cc2ccccc2CS1` (stereo unspecified), the outcome was inactive. In the case of `CCOc1c2c(nn(C)c1=O)Oc1ccccc1N2CCCN1CCOCC1`, the EC50 is more than 589 µM and the IC50 was 19.1 µM. In the case of `COc1ccc(Cc2c(N)[nH]c(=O)n(C)c2=O)cc1`, the EC50 is more than 200 µM and the IC50 came to 89.1 µM.

`CCOC(=O)C1=CC(C)(C(=O)OCC)Nc2c(nc(OC)n(C)c2=O)N1` (stereo unspecified): the EC50 is more than 200 µM and the IC50 was more than 200 µM. As to `CCOC(=O)c1ccc(N=[N+]([O-])c2ccc(C(=O)OCC)cc2)cc1`, the EC50 was more than 100 µM and the IC50 is more than 100 µM. In the case of `COC12OCCN(C)C1=CC(=O)C1=NNC(C)C12` (stereo unspecified), the result was inactive. In the case of `COc1nc(NC2OC(COC(C)=O)C(OC(C)=O)C(OC(C)=O)C2OC(C)=O)c(N=C(C)C(C)=O)c(=O)n1C` (stereo unspecified), the outcome was inactive. Take `CCOc1ccc2c(ccc(/C=C\c3cc(C)c4cccnc4c3O)[n+]2C)c1`: the EC50 was more than 52.5 µM and the IC50 was determined as 0.955 µM. With `O=c1c2ccccc2[nH]c2c(O)ccc(O)c12`, the outcome was inactive. In the case of `CCCCON1C[C@H](OC(C)=O)C(OC(C)=O)[C@H](OC(C)=O)C1` (stereo partly specified), the EC50 is more than 200 µM and the IC50 was more than 200 µM. For the compound `CC(=O)O/N=C/c1ncccc1CO`, the EC50 is more than 490 µM and the IC50 was 389 µM. As to `N#Cc1c(-c2ccc([N+](=O)[O-])cc2)c(C#N)c(=O)n(NS(=O)(=O)c2ccccc2)c1-c1ccccc1`, the EC50 is more than 200 µM and the IC50 was 36.3 µM. For `O=C(CSc1nnc(Cc2ccccc2)o1)Nc1ccccc1` the same measures were more than 209 µM and more than 209 µM. For `O=C(c1c(F)c(F)c(F)c(F)c1F)N1CCN(C(=O)c2c(F)c(F)c(F)c(F)c2F)C1=S` the same measures were more than 200 µM and 1.26 µM. For `COc1cccc(Nc2nc3c([nH]2)c(=O)n(C)c(=O)n3C)c1` the same measures were more than 170 µM and 89.1 µM. Regarding `O=C(O)CC(NC(=O)C(F)(F)F)C(=O)NC1Cc2ccccc2OC1=O` (stereo unspecified), the EC50 was more than 200 µM and the concentration for half-maximal inhibition (IC50) was more than 200 µM. As for `C=CCOCCCCC(C(C)=O)C(=O)OC` (stereo unspecified), the EC50 was more than 251 µM and the IC50 is more than 251 µM. In the case of `CCOc1ccccc1NC(=O)C(=O)Cc1nc2ccccc2s1`, the result was inactive.

As for `COC(=O)/C(=N/O)C(C(=O)C=C(C)C)C(=O)C(=O)Nc1nc2ccc([N+](=O)[O-])cc2s1` (stereo unspecified), the EC50 was more than 41.7 µM and the IC50 came to 32.4 µM.

For the compound `C[CH2][Sn]([CH2]C)([O]C(=O)c1ccc(OC)c(OC)c1OC)[O]C(=O)c1ccc(OC)c(OC)c1OC`, the EC50 is more than 83.2 µM and the IC50 was found to be 7.59 µM. For `CN1C(=NCCO)NS(=O)(=O)c2ccccc21`, the EC50 was more than 977 µM and the IC50 is more than 977 µM. With `c1ccc(P(=Nc2ccccc2N=P(c2ccccc2)(c2ccccc2)c2ccccc2)(c2ccccc2)c2ccccc2)cc1`, the outcome was inactive. For `Cc1cnoc1/N=C1\C=C(Nc2oncc2C)C(=O)c2ccccc21`, the EC50 was more than 4.37 µM and the IC50 was more than 4.37 µM. On to `S=c1n(-c2ccc(Cl)cc2)c2nc3ccccc3nc(/c2=N\Nc2cc(Cl)ccc2Cl)n1-c1ccccn1`, for which the EC50 was more than 200 µM and the IC50 worked out at 18.2 µM. With `CC1OC(O[C@@H]2C=C3CC[C@@H]4[C@H](CC[C@]5(C)[C@@H](c6ccc(=O)oc6)CC[C@]45O)[C@@]3(C)CC2)C(O)C(OC2OC(CO)C(O)C(O)C2O)C1O` (stereo partly specified), the EC50 is more than 0.02 µM and the IC50 was 0.00295 µM. Regarding `O=C1CSC2=NC3=C(CSC/C3=C\c3ccccc3)C(c3ccccc3)N12` (stereo unspecified), the EC50 is more than 200 µM and the IC50 was determined as 43.7 µM. For `CCc1nnc(CC)n1-n1c(Cc2ccccc2)n[nH]c1=O`, the EC50 was more than 200 µM and the IC50 was more than 200 µM. Take `Nc1ccn(C2OC(CO)CC2F)c(=O)n1` (stereo unspecified): the EC50 was 0.132 µM and the IC50 was 7.08 µM. Turning to `O=c1ccc2c(cc3ccc4cccc5ccc2c3c45)o1`, the result was inactive. For `Cc1ccccc1C1CC(c2ccccc2)=NO1` (stereo unspecified), the EC50 was more than 57.5 µM and the IC50 is more than 57.5 µM.

On to `CC1C(C)(C)C23CC12C1(OCCO1)C3Br` (stereo unspecified), for which the EC50 was more than 200 µM and the IC50 is more than 200 µM. Consider `Cc1cc(=O)n2c(nc3ccccc32)s1`, for which the EC50 was more than 200 µM and the IC50 is more than 200 µM. In the case of `O=C(O)c1nc2ccccc2nc1Nc1ccc(Cl)c(Cl)c1`, the EC50 was more than 200 µM and the half-maximal inhibitory concentration (IC50) was 11.5 µM.

In the case of `O=C1NC(=O)C(=Cc2ccccc2Cl)C(=O)N1`, the EC50 is more than 269 µM and the IC50 stood at 2.63 µM.

As to `Cc1ccc2c(c1)NC(=O)C(N=[N+]=[N-])(c1ccccc1)C2=O` (stereo unspecified), the EC50 is more than 200 µM and the IC50 was 49 µM.

As to `COc1ccc(-c2c(C)c(C)[nH]c(=O)c2C(=O)O)c(OCc2ccccc2)c1OC`, the result was inactive. Still for that read-out and setting: then `COC(=O)Cc1cc(=O)oc2c1C(=O)CCC2`, with “inactive”. Regarding `Cc1cc(CS(=O)(=O)/C=C/c2ccccc2[N+](=O)[O-])c(CS(=O)(=O)/C=C/c2ccccc2[N+](=O)[O-])cc1C`, the EC50 is more than 11.5 µM and the IC50 was more than 11.5 µM. Turning to `Cc1nc(C(N)=S)sc1C(=O)CC(=O)C(=O)Nc1ccc(Br)cc1`, the EC50 is more than 85.1 µM and the IC50 was more than 85.1 µM.

Regarding `CC(=O)c1c(P(=O)(OC(C)C)OC(C)C)nn(-c2ccc([N+](=O)[O-])cc2)c1C`, the EC50 is more than 166 µM and the IC50 is more than 166 µM. Turning to `CNc1cc2oc(=O)cc(C)c2cc1C`, the EC50 is more than 67.6 µM and the IC50 was more than 67.6 µM.

As for `C/C(=N\NC(=O)c1ccncc1)c1ccc(F)cc1`, the EC50 was more than 363 µM and the IC50 is more than 363 µM. As to `[NH-]/N=C(\[O-])c1ccncc1.[NH-]/N=C(\[O-])c1ccncc1.[Ni+2]`, the EC50 was more than 100 µM and the IC50 was more than 100 µM.

`CC(=O)N=S(NC(=O)c1ccc(C)cc1)C(Cl)(Cl)Cl` (stereo unspecified): the EC50 was more than 200 µM and the IC50 was found to be 33.9 µM. On to `COc1cc(N)c2[nH]c3c(C)ccc(C)c3c2c1`, for which the EC50 is more than 30.2 µM and the IC50 is more than 30.2 µM.

In the case of `ClCCCSSCCCCl`, the EC50 was more than 200 µM and the IC50 turned out to be 31.6 µM.

Take `COC(=O)CCC(=O)Nc1cc(Cl)ccc1Cl`: the EC50 was more than 468 µM and the IC50 was more than 468 µM. With `CC(C)(C)OC1=C(OC(C)(C)C)C(O)(c2ccc(Cl)cc2)C1=O` (stereo unspecified), the result was inactive. As for `COc1ccc(C2(OC)Oc3ccccc3C(=O)C2(O)OC)cc1OC` (stereo unspecified), the EC50 was more than 200 µM and the half-inhibitory concentration (IC50) is 11.5 µM. Regarding `NC(CO)Cc1cnc[nH]1` (stereo unspecified), the EC50 is more than 200 µM and the IC50 was more than 200 µM. On to `N#CCC(=O)Nc1ccccc1O`, for which the EC50 was more than 708 µM and the IC50 is more than 708 µM. As for `CCOC(=O)Cc1ccc2c(c1)sc1nc(-c3ccc(OC)cc3)cn12`, the EC50 is more than 200 µM and the IC50 amounted to 60.3 µM. With `O=c1cc([O-])[n+](C2OC(CO)C(O)C2O)c2sccn12` (stereo unspecified), the EC50 is more than 63.1 µM and the IC50 is more than 63.1 µM. With `O=C(O)c1ccccc1NC(=O)C1CCCCC1`, the result was inactive.

Turning to `Cc1cccc(/C=N/NC(=S)Nc2ccc(Cl)cc2)n1`, the EC50 was more than 200 µM and the IC50 is 3.16 µM. `O=C1CCCC/C(=C/c2ccccc2)N1`: the outcome was inactive. For the compound `COc1c(OC)c(N)c2cc(C)c(=O)c(C)cc2c1N`, the EC50 was more than 240 µM and the IC50 came to 56.2 µM.
